Assay results: ChEMBL document CHEMBL1151606, “Relationship of structure of bridged (2,6-dimethyl-4-pyridinyl)quinolones to mammalian topoisomerase II inhibition” (Bioorg Med Chem Lett, 1993)

The compounds below were run on Mus musculus (assay: Tested for the increased life span (ILS) in murine leukemia model (in which P388 administered intraperitoneally), at a concentration of 1014 mg/kg). Conditions: P388, ip, route intraperitoneal.
Format: functional
Compound `Cc1cc(-c2c(F)cc3c(=O)c(C(=O)O)cn4c3c2SC[C@@H]4C)cc(C)n1` has an ILS at 1014 mg/kg of 90%.

What follows are compounds tested on Mus musculus (assay: Tested for the increased life span (ILS) in murine leukemia model (in which P388 administered intraperitoneally), at a concentration of 180 mg/kg). Conditions: P388, ip, route intraperitoneal.
Format: functional
Work on `COc1cc([C@@H]2c3cc4c(cc3C(O[C@@H]3O[C@@H]5CO[C@@H](C)O[C@H]5[C@H](O)[C@H]3O)C3COC(=O)[C@@H]32)OCO4)cc(OC)c1O` (single isomer, unassigned) [ETOPOSIDE] yielded an ILS at 180 mg/kg of 220%.

Each compound was assayed against DNA topoisomerase II (Homo sapiens, UniProt P11388+Q02880) (assay: Tested for inhibitory activity against Topoisomerase II isolated from HeLa cells by using SDS-K+ precipitation method). Conditions: not given.
Format: cell-based
`Cc1cc(-c2c(F)cc3c(=O)c(C(=O)O)cn4c3c2OCC[C@@H]4C)cc(C)n1` was tested, and the EC50 was 150 µM.
In the case of `C[C@H]1COc2c(-c3ccncc3)c(F)cc3c(=O)c(C(=O)O)cn1c23`, the EC50 is reported as 57 µM.
`Cc1cc(-c2c(F)cc3c(=O)c(C(=O)O)cn4c3c2OC[C@@H]4C)cc(C)n1` showed an EC50 of 31 µM.
For `Cc1cc(-c2c(F)cc3c(=O)c(C(=O)O)cn4c3c2SC[C@@H]4C)cc(C)n1`, the EC50 was 9.4 µM.
`Cc1cc(-c2c(F)cc3c(=O)c(C(=O)O)cn4c3c2NC[C@@H]4C)cc(C)n1` showed an EC50 of 730 µM.
In the case of `Cc1cc(-c2c(F)cc3c(=O)c(C(=O)O)cn4c3c2OCC42CC2)cc(C)n1`, the EC50 is reported as over 130 µM.
For `Cc1cc(-c2c(F)cc3c(=O)c(C(=O)O)cn4c3c2OCC4(C)C)cc(C)n1`, the EC50 was 510 µM.
`Cc1cc(-c2c(F)c(F)c3c(=O)c(C(=O)O)cn4c3c2OC[C@@H]4C)cc(C)n1` was tested, and the EC50 was 50 µM.
In the case of `CCn1cc(C(=O)O)c(=O)c2cc(F)c(-c3cc(C)nc(C)c3)cc21`, the EC50 is reported as over 570 µM.
`C[C@H]1COc2c(-c3ccc4cnccc4c3)c(F)cc3c(=O)c(C(=O)O)cn1c23` showed an EC50 of 58 µM.
In the case of `Cc1cc(-c2c(F)cc3c(=O)c(C(=O)O)cn4c3c2[S+]([O-])C[C@@H]4C)cc(C)n1` (stereo partly drawn), the EC50 is reported as 62 µM.
Work on `CC[C@H]1COc2c(-c3cc(C)nc(C)c3)c(F)cc3c(=O)c(C(=O)O)cn1c23` yielded an EC50 of 420 µM.
With `Cc1cc(-c2c(F)cc3c(=O)c(C(=O)O)cn4c3c2SC[C@H]4C)cc(C)n1` the EC50 was over 260 µM.
Work on `Cc1cc(-c2ccc3c(=O)c(C(=O)O)cn4c3c2OC[C@@H]4C)cc(C)n1` yielded an EC50 of over 290 µM.
With `Cc1cc(-c2c(F)cc3c(=O)c(C(=O)O)cn4c3c2OC[C@H]4C)cc(C)n1` the EC50 was over 540 µM.
`Cc1cc(-c2c(F)cc3c(=O)c(C(=O)O)cn4c3c2OCC4)cc(C)n1.Cl` was tested, and the EC50 was over 560 µM.
